Assay results from US20220089661A1 (priority 2019, published 2022).
pIC50: −log10 of the molar value. “And” between values parts separate entries of the source, which are not always exact repeats. Equal entries are not always repeated.

How the values were obtained:
Type in all cases: cell-based
[1] = tested on: Botrytis cinerea
[2] = tested on: Fusarium graminearum
[3] = tested on: Botrytis cinerea; remark: listed apart in the source
[4] = tested on: Fusarium graminearum; remark: listed apart in the source

Question: What does the source list for “OeDef7 (RICESLSHRFKGPCVRRGNCAAVCQTEGFPGGLCRGFRRRCFCTKHC; listed as Olea europaea)”?
Answer: pIC50 [1]: 5.52 to 5.70 and 5.40 to 5.52; pIC50 [2]: 5.82 to 6.00 and 5.52 to 5.70; MLC [3]: 4 µM and 6 µM; MLC [4]: 3 µM and 6 µM
